Source: paper PMC4882560, “Polyketides from the Mangrove-Derived Endophytic Fungus Nectria sp. HN001 and Their α-Glucosidase Inhibitory Activity” (Marine Drugs, 2016)

Target: α-Glucosidase from Saccharomyces cerevisiae
Assay: In vitro α-glucosidase inhibitory activity (UV absorbance at 405 nm, p-nitrophenyl glycoside substrate)
Type: biochemical
Details: for IC50: mean ± SD from three parallel measurements, phosphate buffer pH 7.0, 37 °C, absorbance at 405 nm, read-out: IC50, inhibitory effects against α-glucosidase; for α-glucosidase inhibitory activity (result in words): compared to positive control acarbose
Protocol: Optical rotations were measured on a Bellingham-Stanley ADP 440+ polarimeter at 25 °C. IR data were recorded on a Nicolet 5DX-FTIR (Thermo Fisher Scientific, Inc., Hudson, NH, USA), in KBr discs. UV data were recorded on a Shimadzu UV-240 spectrophotometer (Shimadzu, Kyoto, Japan). The ^1H NMR (500 MHz), ^13C NMR (125 MHz), and 2D NMR spectra were obtained on a Bruker AVANCE-500 (Bruker BioSpin Corporation, Billerica, MA, USA) using TMS as an internal reference. HRESIMS were acquired on a Thermofisher LTQ Orbitrp Elite LC-MS spectrometer (Thermo Fisher Scientific, Inc., Hudson, NH, USA), and the ESIMS data were measured on a Micro Mass Q-TOF spectrometer (Waters Corporation, Milford, MA, USA). TLC analysis was carried out on silica gel plates (Marine Chemical Ltd., Qingdao, China). RP-C18 silica gel (Fuji, 40–75 μm, Fuji Silysia Chemical Ltd., Kasugai, Japan), Silica gel (200–300 mesh, Marine Chemical Ltd., Qingdao, China), High silica gel (H, Marine Chemical Ltd., Qingdao, China), and Sephadex LH-20 (GE Healthcare Bio-Sciences AB, Stockholm, Sweden) were used for column chromatography (CC).
An assay of α-glucosidase inhibitory activity was performed using a reported method, with slight modifications. All the assays were performed using 0.01 M KH2PO4-K2HPO4 buffers, pH 7.0, and a Bio-Rad iMark microplate reader (Bio-Rad Laboratories, Inc., Kyoto, Japan). Enzyme solution was prepared to give 2.0 Units/mL in 2 mL aliquots. The assay medium contained phosphate buffer, pH 7.0 (130 μL), 10 μL of enzyme solution, 20 μL of DMSO or inhibitor (dissolved in DMSO), and 40 μL of substrate (p-nitrophenyl glycoside, 3 mg/mL). The substrate was added to the assay medium containing enzyme and buffer with inhibitor added after 15 min of incubation time at 37 °C. The activity was determined by measuring the increase in absorbance at 405 nm for a 1 min interval. Calculations were performed according to the equation: η (%) = [(B − S)/B] × 100%
(B stands for the assay medium with DMSO; S stands for the assay medium with inhibitor). All measurements were done in triplicate from two independent experiments. The reported IC50 was the average value of two independent experiments.

SMILES | IC50 [µM] | α-glucosidase inhibitory activity (result in words)
CC(/C=C/C(=O)O)=C\C=C\C(C)=C\C(C)=C\C(=O)O [Compound 1, 2E, 4E, 6E, 8E, 10E-3,5,9-trimethyldodeca-2,4,6,8, 10-pentaenedioic acid] | 121.8 ± 0.4 | –
COC(=O)/C=C/C(C)=C/C=C/C(C)=C/C(C)=C/C(=O)O [Compound 2, 2E, 4E, 6E, 8E, 10E-12-methoxy-3,5,9-trimethyl-12-oxododeca-2,4,6,8, 10-pentaenoic acid] | 23.5 ± 0.3 | significant inhibitory activity
COC(=O)/C=C/C(C)=C/C=C/C(C)=C\C(C)=C\C(=O)O [Compound 3, 2E, 4Z, 6E, 8E, 10E-12-methoxy-3,5,9-trimethyl-12-oxododeca-2,4,6,8, 10-pentaenoic acid] | 42.3 ± 0.2 | significant inhibitory activity
C[C@H](O)C[C@@H](O)Cc1cc2cc(O)cc(O)c2c(=O)o1 [Compound 4, 12-epicitreoisocoumarinol] | 343.7 ± 1 | –
C[C@@H](O)C[C@@H](O)Cc1cc2cc(O)cc(O)c2c(=O)o1 [Compound 5, citreoisocoumarinol] | 392.5 ± 1.7 | –
CC(=O)C[C@@H](O)Cc1cc2cc(O)cc(O)c2c(=O)o1 [Compound 6, citreoisocoumarin] | 538.7 ± 4.3 | –
Cc1cc(=O)cc(Cc2cc(O)cc(O)c2)o1 [Compound 7, macrocarpon C] | > 900 | did not display inhibitory activity
